From paper PMC8247284 (Antiviral Research, 2021)

How the values were obtained:
[1] = tested on: alpha- and beta-coronaviruses; experiment: organism not typed; conditions: read-out: EC50 values against the various coronaviruses
[2] = tested on: SARS-CoV-2; assay type: cell-based
[3] = tested on: LC3 puncta (autophagy pathway); experiment: High content analysis of cytoplasmic LC3 puncta in HEp-2 cells; assay type: cell-based, human; conditions: 3 h incubation, relative to untreated control
[4] = tested on: HCoV-229E; experiment: Confocal microscopy of dsRNA, HCoV-229E-infected Huh7 cells; assay type: cell-based; conditions: dsRNA staining, 6 h
[5] = tested on: LC3-positive puncta (autophagy); experiment: Confocal microscopy of LC3 in Huh7 cells; assay type: cell-based, human; conditions: chloroquine 0.5, 5 and 50 μM, 6 h, infected and uninfected Huh7 cells
[6] = tested on: SARS-CoV-2; experiment: Confocal microscopy of dsRNA, SARS-CoV-2-infected Huh7 cells; assay type: cell-based; conditions: chloroquine 5 μM, 6 h

## COc1cc(C)c2c(Oc3cccc(C(F)(F)F)c3)c(OC)cc(NC(C)CCCN)c2n1 (stereo not drawn) [Tafenoquine, tafenoquine]
[1]
  EC50: > 13 µM

## C=C[C@H]1C[N@@]2CC[C@H]1C[C@@H]2[C@@H](O)c1ccnc2ccc(OC)cc12 [Quinidine, quinidine]
[1]
  EC50: > 13 µM

## C=C[C@H]1C[N@@]2CC[C@H]1C[C@H]2[C@H](O)c1ccnc2ccc(OC)cc12 [Quinine, quinine]
[1]
  EC50: > 13 µM

## N#C[C@@]1(c2ccc3c(N)ncnn23)O[C@H](CO)[C@@H](O)[C@H]1O [GS-441524]
[2]
  log reduction of the viral copy number: 4.3 log

## CCN(CCO)CCCC(C)Nc1ccnc2cc(Cl)ccc12 (stereo not drawn) [Hydroxychloroquine, hydroxychloroquine]
[3]
  increase of the intensity of cytoplasmic LC3 puncta: 6 fold
[1]
  EC50: 0.12 to 12 µM

## CCN(CC)CCCC(C)Nc1ccnc2cc(Cl)ccc12 (stereo not drawn) [Chloroquine, chloroquine]
[3]
  increase of the intensity of cytoplasmic LC3 puncta: 6 fold
[1]
  EC50: 0.12 to 12 µM
[4]
  concentration required to fully inhibit HCoV-229E replication: 50 µM
[5]
  LC3-positive puncta: dose-dependent increase
[6]
  viral RNA synthesis (dsRNA staining): completely blocked

## COc1cc(NC(C)CCCN)c2ncccc2c1 (stereo not drawn) [Primaquine, primaquine]
[1]
  EC50: > 13 µM
